Data as given in US20250108051A1, “THERAPEUTIC AGENT FOR CANCER” (TOHOKU UNIVERSITY, priority 2022, published 2025).

Assays:
[1] = system: RKO (BRAF V600E-mutated colorectal cancer cell line); assay: MTT assay, encorafenib + binimetinib with retinoid; assay type: cell-based; details: ATRA 0, 1.0 or 10 μM; encorafenib and binimetinib 0 to 10 μM
Experimental: (§1) RKO cells were seeded on a 96-well plate with the number of cells of 1.5×10^3 cells/well, CO115 cells were seeded on a 96-well plate with the number of cells of 2.5×10^3 cells/well, and HT29 cells and WiDR cells were respectively seeded on 96-well plates with the number of cells of 6×10^3 cells/well. After incubation for about 24 hours until the cell density reached 40% to 60%, the drug was administered. After incubation at 37° C. for 72 hours, the MTT assay was performed using Cell Counting Kit-8 (Dojindo Laboratories, Kumamoto, Japan). To each well was added 10 μl of Cell Counting Kit-8 solution, the plates were placed in a culture vessel at 5% CO2 and 37° C. for 120 minutes to perform a color reaction, and then the absorbance at 450 nm was measured and evaluated with a microplate reader SpectraMax M2e (Molecular Devices, Sunnyvale, CA, USA). Cells administered with 0.1% DMSO were used as a control. The above was performed three or more times as independent experiments.
(§2) In various kinds of colorectal cancer cell lines, the inhibition effect of a BRAF inhibitor (encorafenib) and an MEK inhibitor (binimetinib) for the viability of cells and the enhancement by ATRA were examined. […] The horizontal axis indicates component concentrations of encorafenib and binimetinib in a range of 0 μM to 10 μM, and the vertical axis indicates the cell viability when 0 μM, 1.0 μM, or 10 μM (each bar graph) of ATRA was administered. As shown in the drawing, encorafenib and binimetinib were used in an equal molar concentration.
(§3) As the compounds for acting and on a retinoid receptor, retinol, tamibarotene, bexarotene among the retinoids were used. As the cell lines, the above-described cell lines including RKO, HT29, and CO115 were used. As the BRAF inhibitor and the MEK inhibitor to be used in combination, a component (EB) obtained by mixing encorafenib and binimetinib in equal amounts was used as in Test Example 2.
as §3, with “acting” for “acting and”, “tamibarotene, and” for “tamibarotene,”, “colorectal cancer” for “above-described”, “HT29, CO115, WiDR, COLO205,” for “HT29,”, “LIM2405 described above” for “CO115”

[2] = system: HT29 (BRAF V600E-mutated colorectal cancer cell line); assay: MTT assay, encorafenib + binimetinib with retinoid; assay type: cell-based; details: ATRA 0, 1.0 or 10 μM; encorafenib and binimetinib 0 to 10 μM
Experimental: as §1, §2, §3
as §3, with “acting” for “acting and”, “tamibarotene, and” for “tamibarotene,”, “colorectal cancer” for “above-described”, “HT29, CO115, WiDR, COLO205,” for “HT29,”, “LIM2405 described above” for “CO115”

[3] = system: CO115 (BRAF V600E-mutated colorectal cancer cell line); assay: MTT assay, encorafenib + binimetinib with retinoid; assay type: cell-based; details: ATRA 0, 1.0 or 10 μM; encorafenib and binimetinib 0 to 10 μM
Experimental: as §1, §2, §3
as §3, with “acting” for “acting and”, “tamibarotene, and” for “tamibarotene,”, “colorectal cancer” for “above-described”, “HT29, CO115, WiDR, COLO205,” for “HT29,”, “LIM2405 described above” for “CO115”

[4] = system: 8505C (BRAF V600E-mutated thyroid cancer cell line); assay: MTT assay, encorafenib + binimetinib with ATRA; assay type: cell-based; details: ATRA 0, 1.0 or 10 μM; encorafenib and binimetinib 0 to 10 μM
HT29 cells = assay: Xenograft mouse model (Test Example 5), tumor volume and body weight; assay type: in vivo; details: nude mice, ATRA 10 mg/kg oral daily for 21 days
Experimental: As an in vivo test, the therapeutic agent for cancer according to the embodiment was administered to a mouse, and the antitumor effect was verified based on a change in tumor size (volume). Xenograft mouse model was prepared as follows. Female nude mice (BALB/c-nu) were purchased from Charles River Laboratories Japan (Yokohama, Japan) and raised in a specific pathogen-free environment. The above-described HT29 cells cultured were collected with trypsin, and suspended in a mixed solution of a culture medium and a Corning Matrigel basement membrane matrix (Corning, NY, USA) so as to reach 1×10^7 cells/ml. Into a left abdominal region of each mouse was subcutaneously implanted 0.1 mL of cell suspension. […] Encorafenib was orally administered at a dose of 10 mg/kg daily, and ATRA was orally administered at a dose of 10 mg/kg daily for 21 days. Feeding needles for mice were used for oral administration. Cetuximab was intraperitoneally administered twice a week at a dose of 20 mg/kg. Each solvent was used as the control. The tumor size and the body weight were measured every three days after the start of the therapy, and the volume was estimated using a calculation formula (tumor volume (mm^3)=½× major axis (mm)×[…]). […]

RKO cells = assay: Screening of SCADS Inhibitor Kit with dabrafenib + trametinib, cell viability by MTT assay; assay type: cell-based
Experimental: As the SCADS Inhibitor Kit, one provided by the Molecular Profiling Committee of the Grants-in-Aid for Scientific Research “Advanced Animal Model Support (AdAMS)” in the innovation field of the Ministry of Education, Culture, Sports, Science and Technology was used.
The RKO cells were seeded on a 96-well plate with the number of cells of 2.7×10^3 cells/well, and 24 hours later, SCADS Inhibitor Kit 4 ver 2.3 was administered at 500 nM. Two plates treated in the same manner were prepared, and 50 nM of the BRAF inhibitor Dabrafenib and 5 nM of the MEK inhibitor Trametinib were administered to one of the plates. After incubation at 37° C. for 72 hours after the drug administration, cell viability was measured by an MTT assay (described below). The cell viability was evaluated for RKO cells administered with only DMSO.
The MTT (Thiazolyl blue tetrazolium bromide) assay was performed as follows.
RKO cells were seeded on a 96-well plate with the number of cells of 1.5×10^3 cells/well, CO115 cells were seeded on a 96-well plate with the number of cells of 2.5×10^3 cells/well, and HT29 cells and WiDR cells were respectively seeded on 96-well plates with the number of cells of 6×10^3 cells/well. After incubation for about 24 hours until the cell density reached 40% to 60%, the drug was administered. […]
The synergistic effect was evaluated using Combination Index. […]

[5] = system: WiDR (BRAF V600E-mutated colorectal cancer cell line); assay: MTT assay, encorafenib + binimetinib with retinoid; assay type: cell-based; details: ATRA 0, 1.0 or 10 μM; encorafenib and binimetinib 0 to 10 μM
Experimental: as §1, §2
as §3, with “acting” for “acting and”, “tamibarotene, and” for “tamibarotene,”, “colorectal cancer” for “above-described”, “HT29, CO115, WiDR, COLO205,” for “HT29,”, “LIM2405 described above” for “CO115”

Compound: CC1=C(/C=C/C(C)=C/C=C/C(C)=C/C(=O)O)C(C)(C)CCC1 [ATRA, all-trans retinoic acid]
- cell viability with encorafenib and binimetinib as a function of ATRA concentration [1]: the higher the concentration of ATRA is, the lower the cell viability is
- cell viability with encorafenib and binimetinib as a function of ATRA concentration [2]: the higher the concentration of ATRA is, the lower the cell viability is
- cell viability with encorafenib and binimetinib as a function of ATRA concentration [3]: the higher the concentration of ATRA is, the lower the cell viability is
- cell viability with encorafenib and binimetinib as a function of ATRA concentration [4]: the higher the concentration of ATRA is, the lower the cell viability is
- side effects (body weight) (HT29 cells): does not cause any significant side effects
- tumor volume (tumor size) change (HT29 cells; encorafenib 10 mg/kg oral daily, cetuximab 20 mg/kg i.p. twice a week): increased with day
- proliferation inhibition (RKO cells; ATRA alone): less than 20%
- viability at 0.5 µM (RKO cells; Homo sapiens, RKO, 72 hours, kit compound (ATRA) 0.5 μM, DAB 50 nM, TRA 5 nM, relative to DMSO): 101%
- cell viability with encorafenib and binimetinib as a function of ATRA concentration [5]: the higher the concentration of ATRA is, the lower the cell viability is
